The data set can be described thus: Spectrophotometric absorbance at 228 nm before and after 0.22 micron filtration (Example 12). Type of data set: physicochemical. The following applies: 70% ethanol in water, organic solvent or mixture; as prepared in Example 1, 70% ethanol; read-out: concentration at which fully soluble. On the procedure:
A UV-VIS Genesys 105 Thermo Scientific spectrophotometer was used for the assay. Samples were placed in a UV Kurette Halbmicro/UV Cuvette semi micro [Cat no: 759150] for reading.
Because the reference describes measurements at μg/ml concentrations, both the filtered and unfiltered 18 mg/ml solutions were diluted to 9 μg/ml and 12.5 μg/ml and measured again.

Where a name gives a salt, the structure may show the parent alone.

On to `CCCc1nn(C)c2c(=O)[nH]c(-c3cc(S(=O)(=O)N4CCN(C)CC4)ccc3OCC)nc12` [sildenafil citrate], for which the solubility at 10 min amounted to 18 mg/mL.

(Values after US9968609B2, “Sildenafil solutions and methods of making and using same” (Vigorous Solutions Ltd., priority 2014, dated 2018).)
